According to PMC8922279, “Identification of β-Lactams Active against Mycobacterium tuberculosis by a Consortium of Pharmaceutical Companies and Academic Institutions” (ACS Infectious Diseases, 2022):

Columns and labels:
[1] = In vitro plasma stability, human plasma; details: 37 °C, time point 120 min; for Plasma stability % Remaining, Human: 2 μM
[2] = In vitro plasma stability, SD rat plasma; details: 37 °C, time point 120 min; for Plasma stability % Remaining, Rat: 2 μM
[3] = Stability in simulated gastric fluid (SGF); details: for SGF Stability, % remaining, 1h / SGF Stability, % remaining, 24h: 10 μM, pH 1.2, room temperature
[4] = In vitro plasma stability, CD-1 mouse plasma; details: 37 °C, time point 120 min; for Plasma stability % Remaining, Mouse: 2 μM
[5] = In vitro plasma stability, beagle dog plasma; details: for Plasma stability % Remaining, Dog: 2 μM, 37 °C, time point 120 min
[6] = Caco-2 permeability / efflux transporter substrate; details: human
Caco-2 cells = assay: Caco-2 permeability / efflux transporter substrate; details: for Caco-2 Mean Papp A to B / Caco-2 Mean Papp B to A: 3 μM, pH 7.4, 120 min; for Caco-2 Rank Papp / Caco-2 Efflux Ratio / Caco-2 Mean Recovery % A to B / Caco-2 Mean Recovery % B to A / Efflux Transporter Substrate: Caco-2
[7] = In vitro plasma stability, cynomolgus monkey plasma; details: for Plasma stability % Remaining, Monkey: 2 μM, 37 °C, time point 120 min
[8] = Stability in fasted simulated intestinal fluid (FaSSIF); details: pH 6.5, room temperature; for FaSSIF Stability, % remaining, 6h / FaSSIF Stability, % remaining, 24h: 10 μM
Mtb H37Rv [9] = assay: MIC90 against replicating (R) Mtb H37Rv, with or without clavulanate; assay type: cell-based, Mycobacterium tuberculosis; details: Table S4; for Mtb H37Rv R + CLAV (MIC90): clavulanate 4 μg/mL; for Mtb H37Rv R (MIC90): no clavulanate
Mtb H37Rv [10] = assay: MIC90 against nonreplicating (NR, 4-stress) Mtb H37Rv, with or without clavulanate; assay type: cell-based, Mycobacterium tuberculosis; details: 4-stress nonreplicating, Table S4; for Mtb H37Rv NR + CLAV (MIC90): clavulanate 4 μg/mL; for Mtb H37Rv NR (MIC90): no clavulanate
E. coli = assay: Microbial spectrum, E. coli; assay type: cell-based, Escherichia coli; details: clavulanate 4 μg/mL; Table S4
P. aeruginosa = assay: Microbial spectrum, P. aeruginosa; assay type: cell-based, Pseudomonas aeruginosa; details: clavulanate 4 μg/mL; Table S4
S. aureus = assay: Microbial spectrum, S. aureus; assay type: cell-based, Staphylococcus aureus; details: clavulanate 4 μg/mL; Table S4
C. albicans = assay: Microbial spectrum, C. albicans; assay type: cell-based, Candida albicans; details: no clavulanate; Table S4
plasma proteins [11] = assay: Plasma protein binding (equilibrium dialysis), human; details: 2 μM
plasma proteins [12] = assay: Plasma protein binding (equilibrium dialysis), SD rat; details: 2 μM
plasma proteins [13] = assay: Plasma protein binding (equilibrium dialysis), beagle dog; details: 2 μM
plasma proteins [14] = assay: Plasma protein binding (equilibrium dialysis), CD-1 mouse; details: 2 μM
plasma proteins [15] = assay: Plasma protein binding (equilibrium dialysis), cynomolgus monkey; details: 2 μM
[16] = simulated gastric fluid (SGF), pH 1.2

Row | SMILES | Caco-2 Rank Papp (Caco-2 cells) | Mtb H37Rv R + CLAV (MIC90) (Mtb H37Rv [9]) [µM] | Mtb H37Rv R (MIC90) (Mtb H37Rv [9]) [µM] | Mtb H37Rv NR + CLAV (MIC90) (Mtb H37Rv [10]) [µM] | Mtb H37Rv NR (MIC90) (Mtb H37Rv [10]) [µM] | E.coli R + CLAV (MIC90) (E. coli) [µM] | P.aeruginosa R + CLAV (MIC90) (P. aeruginosa) [µM] | S.aureus R + CLAV (MIC90) (S. aureus) [µM] | C.albicans R (MIC90) (C. albicans) [µM] | Plasma stability % Remaining, Human [1] [%] | Plasma stability % Remaining, Rat [2] [%] | SGF Stability, % remaining, 1h [3] [%] | SGF Stability, % remaining, 24h [3] [%] | Plasma stability % Remaining, Mouse [4] [%] | Plasma stability % Remaining, Dog [5] [%] | Caco-2 Mean Papp A to B (Caco-2 cells) | Caco-2 Mean Papp B to A (Caco-2 cells) | Plasma stability % Remaining, Monkey [7] [%] | FaSSIF Stability, % remaining, 6h [8] [%] | FaSSIF Stability, % remaining, 24h [8] [%] | further results
1 | C[C@@H](O)[C@H]1C(=O)N2C(C(=O)O)=C(S[C@@H]3CN[C@H](C(=O)Nc4cccc(C(=O)O)c4)C3)[C@H](C)[C@H]12 [Ertapenem, reference compound] | Low |  |  |  |  |  |  |  |  |  |  |  |  |  |  |  |  |  |  |  | remaining at 2 h, 2 μM ([1]; human, plasma, Plasma stability % Remaining): 77.5%; remaining at 2 h, 2 μM ([2]; SD, rat, plasma, Plasma stability % Remaining): 69.1%; remaining at 1 h, 10 μM [3, 16]: 0%; remaining at 24 h, 10 μM [3, 16]: 0%; remaining at 2 h, 2 μM ([4]; male, CD-1, mouse, plasma, Plasma stability % Remaining, Mouse): 74.2%; remaining at 2 h, 2 μM ([5]; beagle, dog, plasma): 70.7%; Papp A→B at 120 min, 3 μM ([6]; Caco-2, pH 7.4): < 0.23 ×10⁻⁶ cm/s; Papp B→A at 120 min, 3 μM ([6]; Caco-2, pH 7.4): < 0.21 ×10⁻⁶ cm/s; recovery at 120 min, 3 μM ([6]; Caco-2, pH 7.4, Caco-2 Mean Recovery % A to B): < 116%; recovery at 120 min, 3 μM ([6]; Caco-2, pH 7.4, Caco-2 Mean Recovery % B to A): < 112%; remaining at 2 h, 2 μM ([7]; monkey, plasma): 115%; remaining at 6 h, 10 μM ([8]; fasted simulated intestinal fluid (FaSSIF), pH 6.5, FaSSIF Stability, % remaining, 6h): 86.8%; remaining at 24 h, 10 μM ([8]; fasted simulated intestinal fluid (FaSSIF), pH 6.5, FaSSIF Stability, % remaining, 24h): 85.8%
2 | Cn1c(SCC2=C(C(=O)O)N3C(=O)[C@@H](NC(=O)Cc4ccccc4CN)[C@H]3SC2)nnc(O)c1=O [TBBL-0000460] | Low | 2 | 5.4 | 85.6 | 69.3 | 13.4 | > 200 | 4.6 | > 200 | 90.4 | 92.4 | 102.88 | 85.68 | 88.8 | 73.7 | 0.16 10-6 cm/s | 0.24 10-6 cm/s | 25.6 | 96.2 | 86.61 | Caco-2 Efflux Ratio (Caco-2 cells): 1.52; Caco-2 Mean Recovery % A to B (Caco-2 cells): 97.79%; Caco-2 Mean Recovery % B to A (Caco-2 cells): 106.35%; Efflux Transporter Substrate (Caco-2 cells): Poor or no; % bound to plasma, Human (plasma proteins [11]): 15.9%; % bound to plasma, SD Rat (plasma proteins [12]): 29.0%; % bound to plasma, Beagle Dog (plasma proteins [13]): 0.0%; % bound to plasma, CD-1 Mouse (plasma proteins [14]): 16.1%
3 | CCc1nnc(SCC2=C(C(=O)O)N3C(=O)[C@@H](NC(=O)Cc4ccc(C5=NCCCN5)cc4)[C@H]3SC2)s1 [TBBL-0000317] |  | 1.1 | 22.3 | > 100 | > 100 | > 100 | > 100 | 2.1 | > 100 | 17.4 | 2.4 | 90.44 | 79.32 | 13.3 | 31.5 |  |  | 13.4 | 94.96 | 90.38 | 
4 | NCCSC=CC1=C(C(=O)O)N2C(=O)C(NC(=O)CSc3ccc(Cl)c(Cl)c3)C2SC1 (stereo not shown) [TBBL-0000306] |  | 0.3 | 14.4 | > 100 | > 100 | > 100 | > 100 | > 100 | > 100 | 9.5 | 23.0 | 110.19 | 92.52 | 33.8 | 16.6 |  |  | 2.0 | 102.19 | 98.38 | 
5 | CC(=O)OCC1=C(C(=O)O)N2C(=O)[C@@H](NC(=O)CSc3ccncc3)[C@H]2SC1 [TBBL-0000063] | Low | 1.9 | 13.1 | > 100 | > 100 | > 100 | > 100 | 0.8 | > 100 |  |  | 87.31 | 27.14 |  |  | < 0.41 10-6 cm/s | < 0.37 10-6 cm/s |  | 102.47 | 62 | Caco-2 Mean Recovery % A to B (Caco-2 cells): < 87.73%; Caco-2 Mean Recovery % B to A (Caco-2 cells): < 102.87%; % bound to plasma, Human (plasma proteins [11]): 38.7%; % bound to plasma, SD Rat (plasma proteins [12]): 42.4%; % bound to plasma, Beagle Dog (plasma proteins [13]): 27.8%; % bound to plasma, CD-1 Mouse (plasma proteins [14]): 14.7%; % bound to plasma, Cynomolgus Monkey (plasma proteins [15]): 0.0%
6 | CC=CC(=O)OCC1=C(C(=O)O)N2C(=O)[C@@H](NC(=O)C(=NO)c3cccs3)[C@H]2SC1 [TBBL-0000058] | Low | 1.1 | 8.7 | 84.6 | 56.8 | 41.8 | > 100 | 0.5 | > 100 | 35.0 | 60.9 | 94.94 | 57.36 | 67.6 | 81.2 | < 0.38 10-6 cm/s | 0.63 10-6 cm/s | 22.0 | 114.21 | 66.32 | Caco-2 Efflux Ratio (Caco-2 cells): > 1.68; Caco-2 Mean Recovery % A to B (Caco-2 cells): < 98.97%; Caco-2 Mean Recovery % B to A (Caco-2 cells): 111.16%; Efflux Transporter Substrate (Caco-2 cells): Poor or no
7 | C=CCn1nnnc1SCC1=C(C(=O)O)N2C(=O)[C@@H](NC(=O)Cc3ccc(C4=NCCN4)cc3)[C@H]2SC1 [TBBL-0000312] |  | 0.8 | 22.1 | > 100 | > 100 | > 100 | > 100 | 1.1 | > 100 |  |  |  |  |  |  |  |  |  |  |  | 
